Measured values reported in ChEMBL document CHEMBL4831544, “Discovery of IHMT-EZH2-115 as a Potent and Selective Enhancer of Zeste Homolog 2 (EZH2) Inhibitor for the Treatment of B-Cell Lymphomas” (J Med Chem, 2021).

Tests used:
[1] = Antiproliferative activity against human WSUDLCL2 cells assessed as inhibition of cell growth measured after 6 days by CellTiter-Glo luminescent assay; format: functional; conditions: WSUDLCL2, 144 h, time 6 day
[2] = Cmax in rat at 10 mg/kg, po; format: ADME, organism-based; set-up: route oral, dose 10 mg/kg; conditions: in vivo
[3] = Apparent volume of distribution in rat at 10 mg/kg, po; format: ADME, organism-based; conditions: in vivo
[4] = target: Histone-lysine N-methyltransferase SUV39H1 (Homo sapiens) (UniProt O43463); test: Inhibition of SUV39H1 (unknown origin) at 10 uM using SAM as substrate measured up to 960 mins by AlphaScreen microplate reader assay relative to control; conditions: time min <=960
[5] = target: Histone-lysine N-methyltransferase SUV39H2 (Homo sapiens) (UniProt Q9H5I1); test: Inhibition of SUV39H2 (unknown origin) at 10 uM using SAM as substrate measured up to 960 mins by AlphaScreen microplate reader assay relative to control; conditions: time min <=960
[6] = target: Protein arginine N-methyltransferase 1 (Homo sapiens) (UniProt Q99873); test: Inhibition of PRMT1 (unknown origin) at 10 uM using SAM as substrate measured up to 960 mins by AlphaScreen microplate reader assay relative to control; conditions: time min <=960
[7] = target: Protein arginine N-methyltransferase 3 (Homo sapiens) (UniProt O60678); test: Inhibition of PRMT3 (unknown origin) at 10 uM using SAM as substrate measured up to 960 mins by AlphaScreen microplate reader assay relative to control; conditions: time min <=960
[8] = target: Protein arginine N-methyltransferase 6 (Homo sapiens) (UniProt Q96LA8); test: Inhibition of PRMT6 (unknown origin) at 10 uM using SAM as substrate measured up to 960 mins by AlphaScreen microplate reader assay relative to control; conditions: time min <=960
[9] = target: Histone-lysine N-methyltransferase, H3 lysine-36 specific (Homo sapiens) (UniProt Q96L73); test: Inhibition of NSD1 (unknown origin) at 10 uM using SAM as substrate measured up to 960 mins by AlphaScreen microplate reader assay relative to control; conditions: time min <=960
[10] = target: Histone-lysine N-methyltransferase, H3 lysine-79 specific (Homo sapiens) (UniProt Q8TEK3); test: Inhibition of DOT1L (unknown origin) at 10 uM using SAM as substrate measured up to 960 mins by AlphaScreen microplate reader assay relative to control; conditions: time min <=960
[11] = target: Histone-lysine N-methyltransferase KMT5B (Homo sapiens) (UniProt Q4FZB7); test: Inhibition of SUV4-20H1 (unknown origin) at 10 uM using SAM as substrate measured up to 960 mins by AlphaScreen microplate reader assay relative to control; conditions: time min <=960
[12] = target: Histone-lysine N-methyltransferase SETDB1 (Homo sapiens) (UniProt Q15047); test: Inhibition of SETDB1 (unknown origin) at 10 uM using SAM as substrate measured up to 960 mins by AlphaScreen microplate reader assay relative to control; conditions: time min <=960
[13] = target: Histone-lysine N-methyltransferase SETD2 (Homo sapiens) (UniProt Q9BYW2); test: Inhibition of SETD2 (unknown origin) at 10 uM using SAM as substrate measured up to 960 mins by AlphaScreen microplate reader assay relative to control; conditions: time min <=960
[14] = tested on: Histone-lysine N-methyltransferase EZH2 (Homo sapiens), Q15910 [UNDEFINED MUTATION]; test: Inhibition of EZH2 A738T mutant (unknown origin) at 10 uM using SAM as substrate measured up to 960 mins by AlphaScreen microplate reader assay relative to control; conditions: time min <=960
[15] = tested on: Histone-lysine N-methyltransferase EZH2 (Homo sapiens), Q15910 [Y641F]; test: Inhibition of EZH2 Y641F mutant (unknown origin) at 10 uM using SAM as substrate measured up to 960 mins by AlphaScreen microplate reader assay relative to control; conditions: time min <=960
[16] = tested on: Histone-lysine N-methyltransferase EZH2 (Homo sapiens), Q15910 [Y641N]; test: Inhibition of EZH2 Y641N mutant (unknown origin) at 10 uM using SAM as substrate measured up to 960 mins by AlphaScreen microplate reader assay relative to control; conditions: time min <=960
KARPAS-422 [17] = test: Antiproliferative activity against human KARPAS-422 cells harboring EZH2 Y641N mutant assessed as inhibition of cell growth measured after 6 days by CellTiter-Glo luminescent assay; format: functional; conditions: KARPAS-422, 144 h, time 6 day
U2932 = test: Antiproliferative activity against human U2932 cells expressing wild type EZH2 assessed as inhibition of cell growth measured after 6 days by CellTiter-Glo luminescent assay; format: functional; conditions: U2932, 144 h, time 6 day
Daudi = test: Antiproliferative activity against human Daudi cells expressing wild type EZH2 assessed as inhibition of cell growth measured after 6 days by CellTiter-Glo luminescent assay; conditions: 144 h
Pfeiffer = test: Antitumor activity against human Pfeiffer cells harboring EZH2 A677G mutant xenografted in NCG mouse assessed as tumor growth inhibition at 100 mg/kg, po BID via gavage measured after 28 days relative to control; format: functional; conditions: 672 h, time 28 day, read-out: TGI
KARPAS-422 [18] = test: Antitumor activity against human KARPAS-422 cells harboring EZH2 Y641N mutant xenografted in NCG mouse assessed as tumor growth inhibition at 100 mg/kg, po BID via gavage measured after 28 days relative to control; format: functional; conditions: KARPAS-422, po, 672 h, time 28 day, read-out: TGI
KARPAS-422 [19] = test: Antitumor activity against human KARPAS-422 cells harboring EZH2 Y641N mutant xenografted in NCG mouse assessed as tumor growth inhibition at 200 mg/kg, po BID via gavage measured after 28 days relative to control; format: functional; conditions: KARPAS-422, po, 672 h, time 28 day, read-out: TGI
[20] = Cmax in mouse at 10 mg/kg, po measured up to 24 hrs by LC-MS/MS analysis; format: ADME, organism-based; set-up: route oral, dose 10 mg/kg, time <=24; conditions: in vivo
[21] = Oral bioavailability in mouse at 10 mg/kg measured up to 24 hrs by LC-MS/MS analysis; format: ADME, organism-based; conditions: in vivo
[22] = Cmax in mouse at 1 mg/kg, iv measured up to 24 hrs by LC-MS/MS analysis; format: ADME, organism-based; set-up: route intravenous, dose 1 mg/kg, time <=24; conditions: in vivo
[23] = AUC (0 to t) in mouse at 1 mg/kg, iv measured up to 24 hrs by LC-MS/MS analysis; format: ADME, organism-based; set-up: route intravenous, dose 1 mg/kg, time <=24; conditions: in vivo
[24] = AUC (0 to infinity) in mouse at 1 mg/kg, iv measured up to 24 hrs by LC-MS/MS analysis; format: ADME, organism-based; set-up: route intravenous, dose 1 mg/kg, time <=24; conditions: in vivo
[25] = Apparent volume of distribution in mouse at 1 mg/kg, iv measured up to 24 hrs by LC-MS/MS analysis; format: ADME, organism-based; conditions: in vivo
KARPAS-422 [26] = test: Antitumor activity against human KARPAS-422 cells harboring EZH2 Y641N mutant xenografted in NCG mouse assessed as change in tumor weight at 100 mg/kg, po BID via gavage measured after 28 days (reference value: 2.14 g); format: functional; conditions: time 28 day
KARPAS-422 [27] = test: Antitumor activity against human KARPAS-422 cells harboring EZH2 Y641N mutant xenografted in NCG mouse assessed as change in tumor weight at 200 mg/kg, po BID via gavage measured after 28 days (reference value: 2.14 g); format: functional; conditions: time 28 day

Sequence of Protein arginine N-methyltransferase 6 (Homo sapiens) (Q96LA8 whole entry, looked up): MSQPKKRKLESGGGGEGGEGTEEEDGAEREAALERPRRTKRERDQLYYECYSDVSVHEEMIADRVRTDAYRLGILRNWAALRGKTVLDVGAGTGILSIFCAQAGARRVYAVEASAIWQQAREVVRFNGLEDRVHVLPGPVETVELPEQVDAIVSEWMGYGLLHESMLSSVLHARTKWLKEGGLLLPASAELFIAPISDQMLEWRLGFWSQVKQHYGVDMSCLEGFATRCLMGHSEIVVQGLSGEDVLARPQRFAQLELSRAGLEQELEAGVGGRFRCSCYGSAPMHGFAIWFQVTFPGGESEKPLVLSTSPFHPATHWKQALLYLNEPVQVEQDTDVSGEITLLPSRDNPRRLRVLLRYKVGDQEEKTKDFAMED
Sequence of Histone-lysine N-methyltransferase SUV39H1 (Homo sapiens) (O43463 whole entry): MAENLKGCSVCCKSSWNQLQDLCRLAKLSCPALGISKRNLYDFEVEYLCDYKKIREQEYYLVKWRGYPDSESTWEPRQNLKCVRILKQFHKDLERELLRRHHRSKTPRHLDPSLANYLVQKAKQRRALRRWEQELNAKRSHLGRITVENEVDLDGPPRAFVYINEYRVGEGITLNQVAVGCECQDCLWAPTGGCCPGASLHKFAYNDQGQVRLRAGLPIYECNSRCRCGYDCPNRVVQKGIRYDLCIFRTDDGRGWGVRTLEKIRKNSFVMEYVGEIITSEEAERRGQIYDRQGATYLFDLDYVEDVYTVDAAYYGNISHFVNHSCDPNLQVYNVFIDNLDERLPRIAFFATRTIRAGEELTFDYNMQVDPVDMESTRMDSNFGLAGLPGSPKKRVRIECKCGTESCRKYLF
Sequence of Histone-lysine N-methyltransferase SUV39H2 (Homo sapiens) (Q9H5I1 whole entry): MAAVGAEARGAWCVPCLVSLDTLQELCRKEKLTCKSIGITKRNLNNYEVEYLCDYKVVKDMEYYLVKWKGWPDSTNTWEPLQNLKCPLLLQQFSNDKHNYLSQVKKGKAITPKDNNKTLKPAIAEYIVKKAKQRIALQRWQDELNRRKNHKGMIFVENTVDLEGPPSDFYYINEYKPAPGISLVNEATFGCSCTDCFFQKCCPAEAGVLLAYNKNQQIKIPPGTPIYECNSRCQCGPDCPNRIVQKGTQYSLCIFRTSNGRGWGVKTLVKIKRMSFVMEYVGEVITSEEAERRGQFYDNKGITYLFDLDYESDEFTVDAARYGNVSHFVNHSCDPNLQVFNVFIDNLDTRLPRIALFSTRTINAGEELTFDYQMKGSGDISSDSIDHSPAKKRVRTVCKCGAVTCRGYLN
Sequence of Histone-lysine N-methyltransferase, H3 lysine-79 specific (Homo sapiens) (Q8TEK3 whole entry, looked up): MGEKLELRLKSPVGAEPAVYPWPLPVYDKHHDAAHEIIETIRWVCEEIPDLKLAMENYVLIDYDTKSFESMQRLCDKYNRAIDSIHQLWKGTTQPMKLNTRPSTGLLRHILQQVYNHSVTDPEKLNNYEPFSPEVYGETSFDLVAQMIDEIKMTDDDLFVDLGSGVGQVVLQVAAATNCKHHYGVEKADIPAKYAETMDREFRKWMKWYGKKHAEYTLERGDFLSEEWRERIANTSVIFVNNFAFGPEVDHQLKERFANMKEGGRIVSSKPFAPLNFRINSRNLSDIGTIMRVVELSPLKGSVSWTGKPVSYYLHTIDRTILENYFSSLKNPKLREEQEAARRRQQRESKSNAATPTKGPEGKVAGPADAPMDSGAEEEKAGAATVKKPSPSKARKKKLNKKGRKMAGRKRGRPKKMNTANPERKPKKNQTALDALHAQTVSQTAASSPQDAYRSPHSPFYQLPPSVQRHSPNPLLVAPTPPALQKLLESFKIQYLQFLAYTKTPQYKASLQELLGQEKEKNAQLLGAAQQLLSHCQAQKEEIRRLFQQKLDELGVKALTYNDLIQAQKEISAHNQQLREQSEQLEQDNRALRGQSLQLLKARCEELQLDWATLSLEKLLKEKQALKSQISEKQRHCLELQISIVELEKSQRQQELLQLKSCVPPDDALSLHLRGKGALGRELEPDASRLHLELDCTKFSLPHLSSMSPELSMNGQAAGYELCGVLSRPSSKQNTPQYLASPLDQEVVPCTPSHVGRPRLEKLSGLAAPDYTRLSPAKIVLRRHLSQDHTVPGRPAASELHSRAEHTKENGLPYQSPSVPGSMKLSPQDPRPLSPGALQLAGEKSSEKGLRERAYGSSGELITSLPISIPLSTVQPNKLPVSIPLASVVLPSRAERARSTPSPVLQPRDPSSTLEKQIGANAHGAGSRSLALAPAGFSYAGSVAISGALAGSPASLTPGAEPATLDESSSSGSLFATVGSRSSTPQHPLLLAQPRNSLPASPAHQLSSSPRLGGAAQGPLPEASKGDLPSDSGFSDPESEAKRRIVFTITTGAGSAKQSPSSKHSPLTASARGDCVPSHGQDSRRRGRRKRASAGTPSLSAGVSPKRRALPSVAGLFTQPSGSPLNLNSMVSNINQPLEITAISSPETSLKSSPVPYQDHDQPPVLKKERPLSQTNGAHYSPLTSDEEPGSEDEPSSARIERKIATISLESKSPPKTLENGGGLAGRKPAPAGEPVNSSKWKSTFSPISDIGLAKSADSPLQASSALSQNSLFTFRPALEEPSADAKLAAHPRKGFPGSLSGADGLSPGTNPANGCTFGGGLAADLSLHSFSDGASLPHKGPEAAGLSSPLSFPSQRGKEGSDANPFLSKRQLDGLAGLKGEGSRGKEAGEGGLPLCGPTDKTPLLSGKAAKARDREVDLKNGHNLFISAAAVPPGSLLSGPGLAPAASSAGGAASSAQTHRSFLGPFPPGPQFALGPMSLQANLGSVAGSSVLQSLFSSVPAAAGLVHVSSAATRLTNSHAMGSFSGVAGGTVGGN
Sequence of Histone-lysine N-methyltransferase EZH2 (Homo sapiens), Q15910 [UNDEFINED MUTATION] (Q15910 whole entry, looked up, stated change not applied): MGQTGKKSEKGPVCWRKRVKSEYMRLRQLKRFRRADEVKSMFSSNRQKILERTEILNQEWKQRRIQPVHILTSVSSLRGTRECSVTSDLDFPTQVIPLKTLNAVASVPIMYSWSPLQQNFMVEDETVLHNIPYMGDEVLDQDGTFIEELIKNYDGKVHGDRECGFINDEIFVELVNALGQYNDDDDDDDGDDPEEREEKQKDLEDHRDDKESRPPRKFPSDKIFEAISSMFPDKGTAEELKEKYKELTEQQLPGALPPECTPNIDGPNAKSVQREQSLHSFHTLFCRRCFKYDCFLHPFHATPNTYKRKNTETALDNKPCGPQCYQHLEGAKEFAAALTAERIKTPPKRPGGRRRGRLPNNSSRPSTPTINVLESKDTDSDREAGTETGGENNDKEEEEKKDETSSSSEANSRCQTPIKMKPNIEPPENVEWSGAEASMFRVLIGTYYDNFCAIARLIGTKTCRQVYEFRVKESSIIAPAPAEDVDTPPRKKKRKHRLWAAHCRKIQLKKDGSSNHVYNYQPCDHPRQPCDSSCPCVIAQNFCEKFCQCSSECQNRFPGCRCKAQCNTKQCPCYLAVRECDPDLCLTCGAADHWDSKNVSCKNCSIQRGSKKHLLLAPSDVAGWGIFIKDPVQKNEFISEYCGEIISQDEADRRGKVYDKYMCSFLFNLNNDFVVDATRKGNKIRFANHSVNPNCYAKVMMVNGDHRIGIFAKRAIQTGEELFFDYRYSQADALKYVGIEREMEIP
Sequence of Histone-lysine N-methyltransferase KMT5B (Homo sapiens) (Q4FZB7 whole entry, looked up): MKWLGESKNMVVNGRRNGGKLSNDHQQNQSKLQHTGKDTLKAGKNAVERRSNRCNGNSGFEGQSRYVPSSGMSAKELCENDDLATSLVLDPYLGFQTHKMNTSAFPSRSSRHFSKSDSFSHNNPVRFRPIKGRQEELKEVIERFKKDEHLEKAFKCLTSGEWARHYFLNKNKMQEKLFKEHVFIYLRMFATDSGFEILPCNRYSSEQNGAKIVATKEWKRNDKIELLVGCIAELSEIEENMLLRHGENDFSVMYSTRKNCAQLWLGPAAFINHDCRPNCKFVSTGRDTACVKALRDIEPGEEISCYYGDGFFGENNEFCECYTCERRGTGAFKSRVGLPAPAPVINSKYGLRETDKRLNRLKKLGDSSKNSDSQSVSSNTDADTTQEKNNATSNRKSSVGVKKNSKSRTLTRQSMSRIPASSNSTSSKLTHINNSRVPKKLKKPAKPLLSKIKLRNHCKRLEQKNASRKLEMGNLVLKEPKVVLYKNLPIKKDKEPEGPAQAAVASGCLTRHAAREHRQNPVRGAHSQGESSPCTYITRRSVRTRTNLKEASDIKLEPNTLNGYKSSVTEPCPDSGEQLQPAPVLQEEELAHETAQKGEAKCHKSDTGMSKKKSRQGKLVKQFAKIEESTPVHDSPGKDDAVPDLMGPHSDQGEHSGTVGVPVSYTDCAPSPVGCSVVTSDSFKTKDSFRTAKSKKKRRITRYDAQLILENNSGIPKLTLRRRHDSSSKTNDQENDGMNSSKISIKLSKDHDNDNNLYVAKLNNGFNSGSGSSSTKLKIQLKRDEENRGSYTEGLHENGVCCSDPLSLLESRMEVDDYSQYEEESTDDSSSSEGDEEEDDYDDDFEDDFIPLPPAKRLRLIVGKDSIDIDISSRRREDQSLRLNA
Sequence of Protein arginine N-methyltransferase 1 (Homo sapiens) (Q99873 whole entry, looked up): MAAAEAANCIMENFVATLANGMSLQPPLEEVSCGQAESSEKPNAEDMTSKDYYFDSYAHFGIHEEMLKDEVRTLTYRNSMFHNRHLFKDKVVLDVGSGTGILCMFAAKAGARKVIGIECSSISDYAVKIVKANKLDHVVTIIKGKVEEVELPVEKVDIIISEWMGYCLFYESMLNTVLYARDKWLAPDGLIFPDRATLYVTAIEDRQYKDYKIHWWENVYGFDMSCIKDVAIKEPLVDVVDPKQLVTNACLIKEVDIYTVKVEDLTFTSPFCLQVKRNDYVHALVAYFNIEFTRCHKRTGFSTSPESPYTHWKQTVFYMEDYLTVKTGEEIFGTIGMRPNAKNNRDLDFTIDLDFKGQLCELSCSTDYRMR

Cmax [2]: 240 ng/mL
Vz [3]: 36.559 L/kg
inhibition [4]: 1%
inhibition [5]: 8%
inhibition [6]: 7%
inhibition [7]: 0%
inhibition [8]: 0%
inhibition [9]: 12%
inhibition [10]: 0%
inhibition [11]: 0%
inhibition [12]: 1%
inhibition [13]: 0%
inhibition [14]: 100%
inhibition [15]: 99%
inhibition [16]: 98%
GI50 (KARPAS-422 [17]): 50 nM
GI50 (Daudi): > 10000 nM
Cmax [20]: 671 ng/mL
bioavailability [21]: 27%
Cmax [22]: 1240 ng/mL
AUC(0-t) at 24 h [23]: 366 ng·h/mL
AUC(0-inf) [24]: 372 ng·h/mL
Vz [25]: 20.833 L/kg
Structure (SMILES): CCN(C(=O)C1CC1)c1cc(-c2ccc(N3CCN(CC4CC4)CC3)nc2C)cc(C(=O)NCc2c(C)cc(C)[nH]c2=O)c1C
GI50 [1]: 200 nM
GI50 (U2932): > 10000 nM
inhibition in vivo at 100 mg/kg (Pfeiffer): 100%
inhibition in vivo at 100 mg/kg (KARPAS-422 [18]): 70.1%
inhibition in vivo at 200 mg/kg (KARPAS-422 [19]): 97.3%
Activity (KARPAS-422 [26]): 0.64 g
Activity (KARPAS-422 [27]): 0.057 g
